Here are results for ten compounds from patent publication US20080139520A1, “Altering cholesterol and fat uptake by novel allosteric inhibitors of pancreatic phospholipase A2” (priority 2006, published 2008).

Molecules are shown by their SMILES. Where “and” joins values, the source holds several entries; their conditions need not be identical. Equal entries are not always repeated. Where two headings read alike, the source gives them in different places.

One data set has as its target T1, Wild-Type PLA2 (Sus scrofa, UniProt P00592).
T1 construct: made in house
As to the kind of experiment: Decylsulfate binding to wild-type PLA2 (3W), Trp emission. Details: species or system pig. As to the method:
(§1) Fluorescence emission spectrum or time course of the intensity change from tryptophan or the resonance energy transfer probe TMA-DPH were measured in the ratio mode on SLM-Aminco AB2 in a 1 cm cuvette [31, 32] in 1.6 ml stirred buffer containing 1 or 2 μM PLA2 in 10 mM Tris, 5 mM CaCl2 and 20 mM NaCl at pH 8.0 and 24° C. The slit-widths were 4 nm with excitation at 280.
(§2) For example, as summarized in Table 3, the main effect of the presence of bile salt is on the Trp-signal intensities rather than the dissociation constant for decylsulfate.

Another data set concerns the target T2, PLA2 W3F/R6W mutant (Sus scrofa, UniProt P00592, R28W/W25F).
T2 construct: made in house
As to the kind of experiment: Decylsulfate binding to W3F/R6W mutant PLA2 (6W), Trp emission. Set-up: species or system pig. As to the method: as §1, §2

Data set [1] addresses T3, human pancreatic IB PLA2 (Homo sapiens, UniProt P04054).
T3 construct: gift of Dr. Suren Tatulian (Orlando, Fla.)
As to the kind of experiment: Rate-lowering of hydrolysis of DMPC + 0.05 mole fraction cholate vesicles by human pancreatic PLA2. It counts as biochemical. The conditions noted are these: 0.03 mole fraction; DMPC + 0.05 mole fraction cholate. From the text:
(§3) Independent support for selective binding of the rate lowering compounds to a regulatory site on PLA2 comes from the rate-lowering effect of such compounds on the hydrolysis of DMPC vesicles containing 0.05 mole fraction cholate.
(§4) Scores of other compounds in guggul were not active.

For another data set, the target named is T4, pig pancreatic IB PLA2 (Sus scrofa, UniProt P00592).
T4 construct: made in house
As to the kind of experiment: Rate-lowering of hydrolysis of DMPC + 0.05 mole fraction cholate vesicles by pig pancreatic PLA2. The class given is biochemical. To be noted: for Relative Rate-lowering (%) Activity, pPLA2: 0.03 mole fraction, DMPC + 0.05 mole fraction cholate; for relative effectiveness in lowering the rate with pig pancreatic PLA2: DMPC vesicles containing 0.05 mole fraction cholate, FIG. 6.
Description: as §3, §4

For data set [2] the following is noted: reported in literature [54-56]; cited from earlier work.
A further data set concerns the target T5, WT (wild type) pig PLA2 (Sus scrofa, UniProt P00592).
T5 construct: made in house
Kind of data set: PLA2 catalyzed hydrolysis of sonicated DMPC vesicles with added bile salt (pH-stat). It counts as biochemical. To be noted: for effect of bile salt on the rate of hydrolysis (monophasic/biphasic): DMPC vesicles, pancreatic PLA2. As for the experimental part: Aqueous dispersion of phospholipid was sonicated in a bath type sonicator. Virtually transparent suspension was annealed for at least 4 hours at room temperature before use. Reaction progress for the PLA2 catalyzed hydrolysis of sonicated DMPC (1 mM) vesicles was measured by pH-stat titration (Radiometer) with 1 mM 2-aminopropanediol in 4 ml reaction buffer containing 5 mM CaCl2 for DMPC (or 0.5 mM for DMPM), 1 mM NaCl, […] atmosphere. Reaction was initiated by adding 0.1 μg enzyme in 1-10 μl solution. The pH stat method was also used for monitoring the rate of hydrolysis of DMPM (0.4 mM) vesicles in the presence of polymyxin [27-29], or of the mixed-micelles of POPC with bile salts in 1:2 ratio [13, 30].
Delay before the onset of the stationary phase of the PLA2 catalyzed reaction progress for the hydrolysis of zwitterionic phospholipids has been extensively characterized. […] The apparent rates in FIG. 3 were obtained from the initial slopes of such reaction progress during which <5% of the total substrate is hydrolyzed.
The CMC of the bile salts used in this study range between 0.8 to 5 mM.

In data set [3] the target is T6, PLA2 (Sus scrofa, UniProt P00592).
T6 construct: made in house
As to the kind of experiment: Isothermal calorimetric titration of PLA2 with bile salt. The conditions noted are these: ITC, 8.5 μM PLA2; for Kd: read-out: KEB. It counts as binding, pig. As for the experimental part: ITC titration of PLA2 with <1 mM (below the CMC) bile salt stock solution was carried out on the Microcal calorimeter (model VP-itc) with cell volume of 1.42 ml with stirring at 300 rpm. Successive injections were made every 5 min. Standard software was used for the peak integration. The heat change with the internal calibration associated with the dilution of the titrant in the […] was subtracted from the heat change obtained by the injection of the bile salt in the presence of 8.5 μM PLA2. The net heat change per injection in the presence of PLA2 was integrated to obtain the total heat change as a function of the total added amphiphile concentration.
Background: Isothermal titration calorimetry measures the heat released or taken up as one component is titrated into another.

In data set [4] the target is T6, PLA2. As to the kind of experiment: Quenching of RET signal from TMA-DPH bound to PLA2 by bile salts. To be noted: 1 μM PLA2 and TMA-DPH, pH 8.0. The class given is binding, pig. As for the experimental part: as §1
In data set [5] the target is T6, PLA2. As to the kind of experiment: PLA2 catalyzed hydrolysis of mixed micelles of POPC with bile salts. The class given is biochemical, pig. The conditions noted are these: 1 mM POPC, 0.7 mole fraction bile salt. As for the experimental part:
(§5) Aqueous dispersion of phospholipid was sonicated in a bath type sonicator. Virtually transparent suspension was annealed for at least 4 hours at room temperature before use. Reaction progress for the PLA2 catalyzed hydrolysis of sonicated DMPC (1 mM) vesicles was measured by pH-stat titration (Radiometer) with 1 mM 2-aminopropanediol in 4 ml reaction buffer containing 5 mM CaCl2 for DMPC (or 0.5 mM for DMPM), 1 mM NaCl, and 0.1 mM EDTA at pH 8.0 and 24° C. in the nitrogen purged closed atmosphere. Reaction was initiated by adding 0.1 μg enzyme in 1-10 μl solution. The pH stat method was also used for monitoring the rate of hydrolysis of DMPM (0.4 mM) vesicles in the presence of polymyxin [27-29], or of the mixed-micelles of POPC with bile salts in 1:2 ratio [13, 30].

Data set [6] addresses T3, human pancreatic IB PLA2. Kind of data set: Hydrolysis of DMPC vesicles by human IB PLA2 with added bile salt. The class given is biochemical. To be noted: 1 mM DMPC. As for the experimental part:
as §5

T2 sequence (P00592 23-146 W25F/R28W): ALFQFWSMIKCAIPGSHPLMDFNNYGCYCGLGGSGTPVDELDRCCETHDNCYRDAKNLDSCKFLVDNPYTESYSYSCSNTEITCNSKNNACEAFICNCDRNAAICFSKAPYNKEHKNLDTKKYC
T3 sequence (P04054 23-148): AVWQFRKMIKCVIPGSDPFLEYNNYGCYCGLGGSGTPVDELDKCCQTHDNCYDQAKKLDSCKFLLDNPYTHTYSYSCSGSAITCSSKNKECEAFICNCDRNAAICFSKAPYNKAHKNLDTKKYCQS
T1 sequence (P00592 23-146): as the sequence (P00592 23-146 W25F/R28W) above, with F3W, W6R counted along it
T5 sequence (P00592 23-146): as the sequence (P00592 23-146 W25F/R28W) above, with F3W, W6R counted along it
T4 sequence (P00592 23-146): as the sequence (P00592 23-146 W25F/R28W) above, with F3W, W6R counted along it
T6 sequence (P00592 23-146): as the sequence (P00592 23-146 W25F/R28W) above, with F3W, W6R counted along it

For the compound `CCCCCCCCCCOS(=O)(=O)O` [Decylsulfate], the a1 decylsulfate binding on Wild-Type PLA2 (3W + 0.2 mM TCDOC) is reported as −0.03; at Wild-Type PLA2 (3W + Chol (0.2 mM cholate)), 0.10; on Wild-Type PLA2 (3W, no additive), 0.26; at PLA2 W3F/R6W mutant (6W), −0.07; on PLA2 W3F/R6W mutant (6W + 0.2 mM TCDOC), −0.09. The a2 decylsulfate binding on Wild-Type PLA2 (3W + 0.2 mM TCDOC) is reported as −0.07; at Wild-Type PLA2 (3W, no additive), 0.56; on PLA2 W3F/R6W mutant (6W) it was −0.36; at PLA2 W3F/R6W mutant (6W + 0.2 mM TCDOC), −1.1. Besides, the n2 decylsulfate binding at Wild-Type PLA2 (3W + 0.2 mM TCDOC) turned out to be 6; at Wild-Type PLA2 (3W, no additive), 8; on PLA2 W3F/R6W mutant (6W) it was 2.5; at PLA2 W3F/R6W mutant (6W + 0.2 mM TCDOC) it was 2.0. Moreover, the Kd at Wild-Type PLA2 (3W + 0.2 mM TCDOC, read-out: K2^# decylsulfate binding) was 540 µM; on Wild-Type PLA2 (3W + Chol (0.2 mM cholate), read-out: K1^# decylsulfate binding), 50 µM; at Wild-Type PLA2 (3W, no additive, read-out: K1^# decylsulfate binding), 60 µM; on Wild-Type PLA2 (3W, no additive, read-out: K2^# decylsulfate binding), 650 µM; on PLA2 W3F/R6W mutant (6W + 0.2 mM TCDOC, read-out: K2^# decylsulfate binding) it was 650 µM; at PLA2 W3F/R6W mutant (6W, read-out: K1^# decylsulfate binding), 50 µM. The Kd on PLA2 W3F/R6W mutant (6W, read-out: K2^# decylsulfate binding) turned out to be 510 µM. Further, the n1 decylsulfate binding is 1.5 at Wild-Type PLA2 (3W + Chol (0.2 mM cholate)); 1.8 and 1.7 at Wild-Type PLA2 (3W, no additive); 2.7 on PLA2 W3F/R6W mutant (6W).
For the compound `O=C1[C@H](CC[C@H](O)c2ccc(F)cc2)[C@@H](c2ccc(O)cc2)N1c1ccc(F)cc1` [Ezetimibe], the “Relative Rate-lowering (%) Activity, hPLA2” value at human pancreatic IB PLA2 [1] is recorded as 5%. Also, at pig pancreatic IB PLA2, the “Relative Rate-lowering (%) Activity, pPLA2” value was determined as 30% and the “relative effectiveness in lowering the rate with pig pancreatic PLA2” value is “more effective”. For the same compound, in data set [2], the reported side effects result is “hepatotoxicity, cholestatic hepatitis, acute autoimmune hepatitis, myopathy, and modulation of monocytic raft assembly”.
As to `C[C@H](CCC(=O)NCC(=O)O)[C@H]1CC[C@H]2[C@@H]3CC[C@@H]4C[C@H](O)CC[C@]4(C)[C@H]3C[C@H](O)[C@]12C` [GDOC, glycodeoxycholate], the “effect of bile salt on the rate of hydrolysis (monophasic/biphasic)” value (“effect of bile salt … (monophasic/biphasic)” below) on WT (wild type) pig PLA2 was “biphasic effect”.
`CC=C1C(O)C[C@H]2[C@@H]3CCC4=CC(=O)CC[C@]4(C)[C@H]3CC[C@]12C` (stereo partly shown) [Gugguloster-3-one-16-ol]: the “Relative Rate-lowering (%) Activity, hPLA2” value on human pancreatic IB PLA2 [1] was found to be 56%. The “Relative Rate-lowering (%) Activity, pPLA2” value at pig pancreatic IB PLA2 was 90%.
For `C/C=C1\C(=O)C[C@H]2[C@@H]3CCC4=CC(=O)CC[C@]4(C)[C@H]3CC[C@]12C` [Guggulosterone] the same measures were 53% and 85%.
In the case of `CC(=CCCC(C)C1CCC2(C)C3=CCC4C(C)(C)C(O)CCC4(C)C3CCC12C)C(=O)O` (stereo not shown) [Masticadienolic acid], at human pancreatic IB PLA2 [1], the “Relative Rate-lowering (%) Activity, hPLA2” value is 66%. Further, at pig pancreatic IB PLA2, the “Relative Rate-lowering (%) Activity, pPLA2” value is given as >95% and the “relative effectiveness in lowering the rate with pig pancreatic PLA2” value is listed as “effective by another factor of ten”.
With `C[C@H](CCC(=O)NCCS(=O)(=O)O)[C@H]1CC[C@H]2[C@@H]3[C@@H](O)C[C@@H]4C[C@H](O)CC[C@]4(C)[C@H]3CC[C@]12C` [TUDOC, tauroursodeoxycholate], the “effect of bile salt … (monophasic/biphasic)” value at WT (wild type) pig PLA2 is on record as “biphasic effect”. Also, the Kd on PLA2 [3] is < 2 µM. The “efficacy to quench RET signal from TMA-DPH bound to PLA2” value at PLA2 [4] is recorded as “most effective”.
Regarding `C[C@H](CCC(=O)O)[C@H]1CC[C@H]2[C@@H]3[C@@H](O)C[C@@H]4C[C@H](O)CC[C@]4(C)[C@H]3CC[C@]12C` [UDOC, ursodeoxycholate], the Kd at PLA2 [3] is 2 to 38 µM and 37 µM.
Regarding `C[C@H](CCC(=O)O)[C@H]1CC[C@H]2[C@@H]3[C@H](O)C[C@@H]4C[C@H](O)CC[C@]4(C)[C@H]3C[C@H](O)[C@]12C` [cholate, reference compound], the “peak rate of hydrolysis of DMPC vesicles” value at WT (wild type) pig PLA2 (1 mM DMPC, 24° C., cholate above 0.04 mM) amounted to 140 s⁻¹. In addition, at WT (wild type) pig PLA2, the “effect of bile salt … (monophasic/biphasic)” value is “only a rate increase”. Moreover, at PLA2 [5], the “initial rate of hydrolysis of POPC in mixed micelles” value came out at 150 s⁻¹. Also, the “effect on rate of hydrolysis of DMPC vesicles by human pancreatic IB PLA2” value at human pancreatic IB PLA2 [6] is reported as “increases”. At PLA2 [3], the “heat change on titration of PLA2” value is reported as “No heat change”. Also, at PLA2 [4], the “efficacy to quench RET signal from TMA-DPH bound to PLA2” value is recorded as “least effective”.
Turning to `C[C@H](CCC(=O)NCC(=O)O)[C@H]1CC[C@H]2[C@@H]3[C@H](O)C[C@@H]4C[C@H](O)CC[C@]4(C)[C@H]3C[C@H](O)[C@]12C` [glycocholate], at WT (wild type) pig PLA2, the “effect of bile salt … (monophasic/biphasic)” value was “biphasic effect”.
